Data: the supplement of paper PMC10307832

Assays:
Assay in all cases: relative viability (nuclei count vs DMSO), 5 days (fraction); higher = more cells survive
SK-LU-1 = tested on: SK-LU-1
In short: (§1)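 Lung cancer cell lines, seeded in 1536-well plates, were treated the following day by pin tool with a single drug or with five library-drug doses (not always all listed) in √10 steps on top of a fixed anchor-drug dose. Cells were fixed and nuclei stained in one step after 5 days, and nuclei were counted. Relative viability is the nuclei count for treated wells divided by that for vehicle wells, reported as medians of duplicate plates.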

NCI-H1975 = tested on: NCI-H1975
In short: as §1

SW 1573 = tested on: SW 1573
In short: as §1

HCC-827 = tested on: HCC-827
In short: as §1

ChaGo-K-1 = tested on: ChaGo-K-1
In short: as §1

EPLC-272H = tested on: EPLC-272H
In short: as §1

NCI-H1666 = tested on: NCI-H1666
In short: as §1

LK-2 = tested on: LK-2
In short: as §1

HCC-78 = tested on: HCC-78
In short: as §1

NCI-H2126 = tested on: NCI-H2126
In short: as §1

NCI-H322M = tested on: NCI-H322M
In short: as §1

PC-14 = tested on: PC-14
In short: as §1

NCI-H2342 = tested on: NCI-H2342
In short: as §1

NCI-H23 = tested on: NCI-H23
In short: as §1

EKVX = tested on: EKVX
In short: as §1

EMC-BAC-2 = tested on: EMC-BAC-2
In short: as §1

LU99A = tested on: LU99A
In short: as §1

SW 900 = tested on: SW 900
In short: as §1

LCLC-103H = tested on: LCLC-103H
In short: as §1

NCI-H2405 = tested on: NCI-H2405
In short: as §1

RERF-LC-KJ = tested on: RERF-LC-KJ
In short: as §1

Q: Which relative viability (SK-LU-1; first compound 0.0002 µM) does the source give for `CC(=O)O[C@@]12CO[C@@H]1C[C@H](O)[C@@]1(C)C(=O)[C@H](O)C3=C(C)[C@@H](OC(=O)[C@H](O)[C@@H](NC(=O)OC(C)(C)C)c4ccccc4)C[C@@](O)([C@@H](OC(=O)c4ccccc4)[C@H]21)C3(C)C` [Docetaxel] + CC(=O)c1c(C)c2cnc(Nc3ccc(N4CCNCC4)cn3)nc2n(C2CCCC2)c1=O [Palbociclib] (partner 0.5 µM) here?
A: 0.358

Q: And the relative viability (SK-LU-1; first compound 0.000632 µM)?
A: 0.315

Q: And the relative viability (SK-LU-1; first compound 0.002 µM)?
A: 0.409

Q: And the relative viability (SK-LU-1; first compound 0.006325 µM)?
A: 0.265

Q: And the relative viability (SK-LU-1; first compound 0.02 µM)?
A: 0.19

Q: And the relative viability (NCI-H1975; first compound 0.0002 µM)?
A: 0.568

Q: And the relative viability (NCI-H1975; first compound 0.000632 µM)?
A: 0.354

Q: And the relative viability (NCI-H1975; first compound 0.002 µM)?
A: 0.224

Q: And the relative viability (NCI-H1975; first compound 0.006325 µM)?
A: 0.215

Q: What about the relative viability (NCI-H1975; first compound 0.02 µM) of the same molecule?
A: 0.107

Q: What about the relative viability (SW 1573; first compound 0.0002 µM) of the same molecule?
A: 0.316

Q: And the relative viability (SW 1573; first compound 0.000632 µM)?
A: 0.23

Q: What about the relative viability (SW 1573; first compound 0.002 µM) of the same molecule?
A: 0.155

Q: And the relative viability (SW 1573; first compound 0.006325 µM)?
A: 0.196

Q: What about the relative viability (SW 1573; first compound 0.02 µM) of the same molecule?
A: 0.0993

Q: And the relative viability (HCC-827; first compound 0.0002 µM)?
A: 0.508

Q: What about the relative viability (HCC-827; first compound 0.000632 µM) of the same molecule?
A: 0.446

Q: What about the relative viability (HCC-827; first compound 0.002 µM) of the same molecule?
A: 0.375

Q: What about the relative viability (HCC-827; first compound 0.006325 µM) of the same molecule?
A: 0.213

Q: And the relative viability (HCC-827; first compound 0.02 µM)?
A: 0.197

Q: What about the relative viability (ChaGo-K-1; first compound 0.0002 µM) of the same molecule?
A: 0.883

Q: What about the relative viability (ChaGo-K-1; first compound 0.000632 µM) of the same molecule?
A: 0.677

Q: What about the relative viability (ChaGo-K-1; first compound 0.002 µM) of the same molecule?
A: 0.418

Q: What about the relative viability (ChaGo-K-1; first compound 0.006325 µM) of the same molecule?
A: 0.313

Q: And the relative viability (EPLC-272H; first compound 0.0002 µM)?
A: 0.374

Q: And the relative viability (EPLC-272H; first compound 0.000632 µM)?
A: 0.341

Q: And the relative viability (EPLC-272H; first compound 0.002 µM)?
A: 0.236

Q: What about the relative viability (EPLC-272H; first compound 0.006325 µM) of the same molecule?
A: 0.204

Q: What about the relative viability (EPLC-272H; first compound 0.02 µM) of the same molecule?
A: 0.148

Q: What about the relative viability (NCI-H1666; first compound 0.0002 µM) of the same molecule?
A: 0.628

Q: And the relative viability (NCI-H1666; first compound 0.000632 µM)?
A: 0.666

Q: And the relative viability (NCI-H1666; first compound 0.002 µM)?
A: 0.795

Q: What about the relative viability (NCI-H1666; first compound 0.006325 µM) of the same molecule?
A: 0.712

Q: And the relative viability (NCI-H1666; first compound 0.02 µM)?
A: 0.581

Q: And the relative viability (LK-2; first compound 0.0002 µM)?
A: 0.507

Q: What about the relative viability (LK-2; first compound 0.000632 µM) of the same molecule?
A: 0.411

Q: And the relative viability (LK-2; first compound 0.002 µM)?
A: 0.18

Q: What about the relative viability (LK-2; first compound 0.006325 µM) of the same molecule?
A: 0.108

Q: What about the relative viability (LK-2; first compound 0.02 µM) of the same molecule?
A: 0.0873

Q: What about the relative viability (HCC-78; first compound 0.0002 µM) of the same molecule?
A: 0.388

Q: What about the relative viability (HCC-78; first compound 0.000632 µM) of the same molecule?
A: 0.481

Q: What about the relative viability (HCC-78; first compound 0.002 µM) of the same molecule?
A: 0.435

Q: What about the relative viability (HCC-78; first compound 0.006325 µM) of the same molecule?
A: 0.457

Q: What about the relative viability (HCC-78; first compound 0.02 µM) of the same molecule?
A: 0.4

Q: And the relative viability (NCI-H2126; first compound 0.0002 µM)?
A: 0.378

Q: What about the relative viability (NCI-H2126; first compound 0.000632 µM) of the same molecule?
A: 0.356

Q: And the relative viability (NCI-H2126; first compound 0.002 µM)?
A: 0.332

Q: What about the relative viability (NCI-H2126; first compound 0.006325 µM) of the same molecule?
A: 0.261

Q: And the relative viability (NCI-H322M; first compound 0.0002 µM)?
A: 0.469

Q: And the relative viability (NCI-H322M; first compound 0.000632 µM)?
A: 0.448

Q: What about the relative viability (NCI-H322M; first compound 0.002 µM) of the same molecule?
A: 0.471

Q: What about the relative viability (NCI-H322M; first compound 0.006325 µM) of the same molecule?
A: 0.468

Q: And the relative viability (NCI-H322M; first compound 0.02 µM)?
A: 0.438

Q: And the relative viability (PC-14; first compound 0.0002 µM)?
A: 0.466

Q: And the relative viability (PC-14; first compound 0.000632 µM)?
A: 0.501

Q: What about the relative viability (PC-14; first compound 0.002 µM) of the same molecule?
A: 0.0828

Q: And the relative viability (PC-14; first compound 0.006325 µM)?
A: 0.0351

Q: And the relative viability (PC-14; first compound 0.02 µM)?
A: 0.0299

Q: And the relative viability (NCI-H2342; first compound 0.0002 µM)?
A: 0.683

Q: And the relative viability (NCI-H2342; first compound 0.000632 µM)?
A: 0.558

Q: What about the relative viability (NCI-H2342; first compound 0.002 µM) of the same molecule?
A: 0.486

Q: What about the relative viability (NCI-H2342; first compound 0.006325 µM) of the same molecule?
A: 0.388

Q: And the relative viability (NCI-H2342; first compound 0.02 µM)?
A: 0.394

Q: And the relative viability (NCI-H23; first compound 0.0002 µM)?
A: 0.562

Q: What about the relative viability (NCI-H23; first compound 0.000632 µM) of the same molecule?
A: 0.523

Q: What about the relative viability (NCI-H23; first compound 0.002 µM) of the same molecule?
A: 0.348

Q: What about the relative viability (NCI-H23; first compound 0.006325 µM) of the same molecule?
A: 0.168

Q: And the relative viability (NCI-H23; first compound 0.02 µM)?
A: 0.163

Q: What about the relative viability (EKVX; first compound 0.0002 µM) of the same molecule?
A: 0.337

Q: And the relative viability (EKVX; first compound 0.000632 µM)?
A: 0.36

Q: What about the relative viability (EKVX; first compound 0.002 µM) of the same molecule?
A: 0.245

Q: What about the relative viability (EKVX; first compound 0.006325 µM) of the same molecule?
A: 0.242

Q: And the relative viability (EKVX; first compound 0.02 µM)?
A: 0.149

Q: And the relative viability (EMC-BAC-2; first compound 0.0002 µM)?
A: 0.511

Q: And the relative viability (EMC-BAC-2; first compound 0.000632 µM)?
A: 0.536

Q: What about the relative viability (EMC-BAC-2; first compound 0.002 µM) of the same molecule?
A: 0.441

Q: What about the relative viability (EMC-BAC-2; first compound 0.006325 µM) of the same molecule?
A: 0.363

Q: And the relative viability (EMC-BAC-2; first compound 0.02 µM)?
A: 0.31

Q: And the relative viability (LU99A; first compound 0.0002 µM)?
A: 0.367

Q: And the relative viability (LU99A; first compound 0.000632 µM)?
A: 0.36

Q: And the relative viability (LU99A; first compound 0.002 µM)?
A: 0.265

Q: What about the relative viability (LU99A; first compound 0.006325 µM) of the same molecule?
A: 0.245

Q: What about the relative viability (LU99A; first compound 0.02 µM) of the same molecule?
A: 0.159

Q: What about the relative viability (SW 900; first compound 0.0002 µM) of the same molecule?
A: 0.511

Q: And the relative viability (SW 900; first compound 0.000632 µM)?
A: 0.308

Q: What about the relative viability (SW 900; first compound 0.002 µM) of the same molecule?
A: 0.354

Q: And the relative viability (SW 900; first compound 0.006325 µM)?
A: 0.332

Q: What about the relative viability (SW 900; first compound 0.02 µM) of the same molecule?
A: 0.264

Q: And the relative viability (LCLC-103H; first compound 0.0002 µM)?
A: 0.496

Q: And the relative viability (LCLC-103H; first compound 0.000632 µM)?
A: 0.532

Q: And the relative viability (LCLC-103H; first compound 0.002 µM)?
A: 0.5

Q: What about the relative viability (LCLC-103H; first compound 0.006325 µM) of the same molecule?
A: 0.598

Q: What about the relative viability (LCLC-103H; first compound 0.02 µM) of the same molecule?
A: 0.57

Q: What about the relative viability (NCI-H2405; first compound 0.0002 µM) of the same molecule?
A: 0.525

Q: And the relative viability (NCI-H2405; first compound 0.000632 µM)?
A: 0.513

Q: And the relative viability (NCI-H2405; first compound 0.002 µM)?
A: 0.456

Q: And the relative viability (NCI-H2405; first compound 0.006325 µM)?
A: 0.401

Q: And the relative viability (NCI-H2405; first compound 0.02 µM)?
A: 0.29

Q: What about the relative viability (RERF-LC-KJ; first compound 0.0002 µM) of the same molecule?
A: 1.02

Q: What about the relative viability (RERF-LC-KJ; first compound 0.000632 µM) of the same molecule?
A: 1.37

Q: What about the relative viability (RERF-LC-KJ; first compound 0.002 µM) of the same molecule?
A: 0.381

Q: And the relative viability (RERF-LC-KJ; first compound 0.006325 µM)?
A: 0.249

Q: What about the relative viability (RERF-LC-KJ; first compound 0.02 µM) of the same molecule?
A: 0.165
